Structures are written as SMILES. Active and inactive are the calls of the source. The calls are words filed in the database; no cut-off is given here.

The term inhibition denotes the relative decrease from the control value, in per cent. As usually defined, the EC50 is the concentration giving half of the maximal effect. What is called IC50 is the concentration that gives 50% inhibition.

In assay [1] the target is T1, C-C chemokine receptor type 2 (Homo sapiens, UniProt P41597). Nature of the assay: Displacement of [3H]INCB3344 from human CCR2 expressed in human U2OS cells at 1 uM after 120 mins by scintillation spectrometric analysis relative to control. The format is cell-based. For orientation: In a radioligand displacement assay an active substance lowers the binding of a labelled ligand.
Target sequence in this assay (P41597 whole entry, looked up): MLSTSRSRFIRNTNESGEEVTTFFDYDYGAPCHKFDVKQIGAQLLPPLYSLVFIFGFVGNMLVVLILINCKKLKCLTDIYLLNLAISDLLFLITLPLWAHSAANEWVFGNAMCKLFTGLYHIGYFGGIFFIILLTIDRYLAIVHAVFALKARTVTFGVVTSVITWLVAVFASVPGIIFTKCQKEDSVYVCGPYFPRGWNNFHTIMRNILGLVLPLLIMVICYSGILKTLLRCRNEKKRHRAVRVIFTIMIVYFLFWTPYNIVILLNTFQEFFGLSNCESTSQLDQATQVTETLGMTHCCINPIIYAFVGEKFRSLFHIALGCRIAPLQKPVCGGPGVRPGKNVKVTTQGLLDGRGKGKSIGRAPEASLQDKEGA

Assay [2] deals with T2, C-C chemokine receptor type 5 (Homo sapiens, UniProt P51681). Nature of the assay: Displacement of [3H]TAK-779 from CCR5 (unknown origin) at 1 uM after 120 mins by scintillation counting method relative to control.
Target sequence in this assay (P51681 whole entry, looked up): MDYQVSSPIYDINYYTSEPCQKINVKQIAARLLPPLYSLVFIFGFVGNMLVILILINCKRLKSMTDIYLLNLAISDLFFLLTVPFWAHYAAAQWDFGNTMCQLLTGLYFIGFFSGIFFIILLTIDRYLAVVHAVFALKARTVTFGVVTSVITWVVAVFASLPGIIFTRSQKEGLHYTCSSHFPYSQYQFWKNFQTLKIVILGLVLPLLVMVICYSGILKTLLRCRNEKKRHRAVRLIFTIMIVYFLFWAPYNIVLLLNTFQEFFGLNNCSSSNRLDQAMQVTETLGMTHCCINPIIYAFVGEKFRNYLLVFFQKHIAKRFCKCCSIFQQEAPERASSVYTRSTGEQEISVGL
The target in assay [3] is T2, C-C chemokine receptor type 5. Nature of the assay: Positive allosteric modulation of human CCR5 expressed in HEK293T cells co-expressing CAMYEL assessed as increase in CCL4-induced inhibition of forskolin-stimulated cAMP accumulation after 10 mins by BRET assay. The class given is functional, cell-based, HEK-293T. On the technique in general: cAMP levels reflect the balance of adenylyl cyclase and phosphodiesterase activity.
Target sequence in this assay (P51681 whole entry): as the sequence (P51681 whole entry, looked up) above

For assay [4] the target is unchanged. Nature of the assay: Negative allosteric modulation of human CCR5 expressed in HEK293T cells co-expressing CAMYEL assessed as decrease in CCL5-induced inhibition of forskolin-stimulated cAMP accumulation after 10 mins by BRET assay. The class given is functional, cell-based. The conditions noted are these: HEK-293T.
Target sequence in this assay (P51681 whole entry, looked up): as above
The target is the same in assay [5]. Nature of the assay: Negative allosteric modulation of human CCR5 expressed in HEK293T cells co-expressing CAMYEL assessed as decrease in CCL4-induced inhibition of forskolin-stimulated cAMP accumulation after 10 mins by BRET assay. The format is functional, cell-based. The note with it: HEK-293T.
Target sequence in this assay (P51681 whole entry, looked up): as above
The target in assay [6] is T1, C-C chemokine receptor type 2. Nature of the assay: Antagonist activity at human CCR2b expressed in human Chem1 cells assessed as inhibition of human recombinant CCL2 induced Ca2+ mobilization preincubated for 10 mins followed by CCL2 induction measured every sec for 120 secs by Fluo-4-AM dye-based fluorescence assay. The format is functional, cell-based.
Target sequence in this assay (P41597 whole entry): as the sequence (P41597 whole entry, looked up) above
The target is the same in assay [7]. Nature of the assay: Displacement of [3H]INCB3344 from human CCR2 expressed in human U2OS cells after 120 mins by scintillation spectrometric analysis. The class given is cell-based.
Target sequence in this assay (P41597 whole entry): as the sequence (P41597 whole entry, looked up) above
For assay [8], the target named is T2, C-C chemokine receptor type 5. Nature of the assay: Displacement of [3H]TAK-779 from CCR5 (unknown origin) after 120 mins by scintillation counting method.
Target sequence in this assay (P51681 whole entry): as the sequence (P51681 whole entry, looked up) above
The target is the same in assay [9]. Nature of the assay: Intrinsic agonist activity at human CCR5 expressed in HEK293T cells co-expressing CAMYEL assessed as inhibition of forskolin-stimulated cAMP accumulation after 10 mins by BRET assay. The class given is functional, cell-based. The note with it: HEK-293T.
Target sequence in this assay (P51681 whole entry, looked up): as above
The target is the same in assay [10]. Nature of the assay: Positive allosteric modulation of human CCR5 expressed in HEK293T cells co-expressing CAMYEL assessed as increase in CCL5-induced inhibition of forskolin-stimulated cAMP accumulation after 10 mins by BRET assay. The class given is functional, cell-based. The note with it: HEK-293T.
Target sequence in this assay (P51681 whole entry, looked up): as above

For `CC(C)CN1CC(C(=O)Nc2ccc(CN(C)C3CCOCC3)cc2)=Cc2c(cccc2[N+](=O)[O-])C1=O`, the inhibition worked out at 6% in assay [1] and 0% in assay [2]. Also, the EC50 in assay [3] was above 10 nM.

In the case of `CC(C)CN1CC(C(=O)Nc2ccc(CN(C)C3CCOCC3)cc2)=Cc2ccc([N+](=O)[O-])cc2C1=O`, the inhibition was 9% in assay [1] and 0% in assay [2]. Further, in assay [3], the EC50 is above 10 nM.

On to `CC(C)CN1CC(C(=O)Nc2ccc(S(=O)(=O)Nc3nccs3)cc2)=Cc2ccccc2C1=O`, for which the inhibition in assay [1] was 18%; in assay [2], 0%. Further, the EC50 in assay [3] was above 10 nM.

On to `Cc1ccc(-c2ccc3c(c2)C=C(C(=O)Nc2ccc(CN(C)C4CCOCC4)cc2)CN(CC(C)C)C3=O)cc1`, for which the outcome in assay [4] and in assay [5] was Active. Moreover, the IC50 in assay [6] is 140 nM; in [7], 387 nM. In assay [2], this compound registered an inhibition of 0%. In [3], the EC50 was above 10 nM.

Regarding `Cc1ccc(-c2ccc3c(c2)C(=O)N(CC(C)C)CC(C(=O)Nc2ccc(CN(C)C4CCOCC4)cc2)=C3)cc1`, the inhibition in assay [1] and in [2] was 0% in each case. In addition, the IC50 in assay [6] stood at 3000 nM. For the same compound, in assay [3], the EC50 was above 10 nM.

Turning to `Cc1ccc(-c2ccc3c(c2)C=C(C(=O)Nc2ccc(C[N+](C)(C)C4CCOCC4)cc2)CCC3)cc1`, the half-maximal inhibitory concentration (IC50) in assay [8] is 2 nM. In assay [3], the half-maximal effective concentration (EC50) was 7 nM.

In the case of `CC(C)CN1CC(C(=O)Nc2ccc(CN(C)C3CCOCC3)cc2)=Cc2ccc(NS(C)(=O)=O)cc2C1=O`, the inhibition amounted to 18% in [1] and 0% in [2]. Besides, the EC50 in [3] is above 10 nM.

For the compound `CC(=O)Nc1ccc2c(c1)C(=O)N(CC(C)C)CC(C(=O)Nc1ccc(CN(C)C3CCOCC3)cc1)=C2`, the values for the inhibition in assay [1] and in assay [2] were 15% and 0%, respectively. For the same compound, in assay [3], the concentration giving a half-maximal response (EC50) is above 10 nM.

For `CC(C)CN1CC(C(=O)Nc2ccc(CN(C)C3CCOCC3)cc2)=Cc2ccccc2C1=O`, the values for the inhibition in assay [1] and in assay [2] were 18% and 0%, respectively. Further, the outcome in assay [9] and in [10] was inactive. Moreover, the EC50 in assay [3] is 2470 nM.

For the origin of these results see ChEMBL document CHEMBL4033672, “Synthesis and biological evaluation of chemokine receptor ligands with 2-benzazepine scaffold” (Eur J Med Chem, 2017).
